These results are taken from PubChem BioAssay AID651630 (Sanford-Burnham Center for Chemical Genomics, 2012).

pIC50: −log10 of the molar value. Active and inactive are the calls of the source.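 The calls were made as follows: active = lipid-stain IC50 at or below a set limit, with nuclear-stain toxicity IC50 at least five times higher; inactive = the rest.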 A value given as a limit tells only on which side of the number the result lay.

One experiment deals with DAPI. Briefly: triacylglycerol accumulation inhibitor potency, dose response, cell-based, panel, Nile Red and DAPI fluorescence, H9c2 (AID 651630).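 Also: cells exposed to compound overnight before fixation and staining.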 The conditions noted are these: H9c2 cells, DAPI nuclear fluorescence (cytotoxicity counter-readout), oleic acid.
A further experiment has as its system TAG. The description is as above. The settings on record: H9c2 cells, Nile Red TAG fluorescence, oleic acid.

Usually pIC50 stands for the negative decadic logarithm of the IC50, by convention in mol/L. For orientation: IC50 means the concentration that inhibits the measured activity by half.

On to `CCOC(=O)c1cc(-c2ccncc2)nc2c1c(C)nn2-c1ccccn1`, for which the IC50 cytotoxicity (DAPI nuclear signal decrease) in the experiment on DAPI (mean of runs) is > 25 µM (inactive); with DAPI (run 1), greater than 25 µM; with DAPI (run 2), greater than 25 µM. The pIC50 in the experiment on TAG (run 1) is 4.85; with TAG (run 2) it was less than 4.60.
As for `CCCCCC(/C=N/Nc1ccc(S(=O)(=O)N2CCOCC2)cc1[N+](=O)[O-])=C\c1ccccc1`, the IC50 cytotoxicity (DAPI nuclear signal decrease) with DAPI (mean of runs) was > 25 µM (inactive); with DAPI (run 1), greater than 25 µM; in the experiment with DAPI (run 2) it was greater than 25 µM. Moreover, the pIC50 was 4.84 in the experiment on TAG (mean of runs), 4.89 with TAG (run 1) and 4.80 in the experiment on TAG (run 2).
With `CCc1ccc(-c2nc(C(N)=O)c3[nH]c(=O)n(-c4ccccc4OC)c3n2)cc1`, the IC50 cytotoxicity (DAPI nuclear signal decrease) in the experiment on DAPI (run 1) and in the experiment with DAPI (run 2) was greater than 25 µM in each case. In addition, the pIC50 in the experiment on TAG (mean of runs) is 5.56; in the experiment on TAG (run 1), 5.56; in the experiment on TAG (run 2), 5.57.
In the case of `CCOC(=O)[C@H]1[C@H]2COc3ccc(C)cc3[C@@H]2N2C(=O)c3cc(Br)ccc3NC(=O)[C@@]12C`, the results for the IC50 cytotoxicity (DAPI nuclear signal decrease) in the experiment with DAPI (mean of runs), in the experiment on DAPI (run 1) and in the experiment with DAPI (run 2) were > 25 µM (inactive), greater than 25 µM and greater than 25 µM, respectively. The IC50 in the experiment on TAG (mean of runs) was 21.6 µM (inactive). For the same molecule, the pIC50 in the experiment with TAG (run 1) is 4.65; with TAG (run 2), 4.68.
In the case of `COCCCn1c(N)c(C(=O)Nc2ccccc2)c2nc3ccccc3nc21`, the results for the IC50 cytotoxicity (DAPI nuclear signal decrease) with DAPI (mean of runs), with DAPI (run 1) and with DAPI (run 2) were > 25 µM (inactive), greater than 25 µM and greater than 25 µM, respectively. Also, the pIC50 in the experiment with TAG (mean of runs) is 4.87; with TAG (run 1) it was 4.93; in the experiment with TAG (run 2) it was 4.82.
On to `COc1ccc(Nc2oc(-c3ccc(Cl)cc3)nc2C#N)cc1`, for which the IC50 cytotoxicity (DAPI nuclear signal decrease) is > 25 µM (inactive) in the experiment with DAPI (mean of runs), greater than 25 µM in the experiment on DAPI (run 1) and greater than 25 µM in the experiment with DAPI (run 2). In addition, the negative-log IC50 (pIC50) is 4.75 in the experiment with TAG (run 1) and less than 4.60 in the experiment on TAG (run 2).
On to `CCN(CC)CCNc1nc(-n2nc(C)cc2C)nc2sc3c(c12)CC(C)(C)OC3`, for which the IC50 cytotoxicity (DAPI nuclear signal decrease) was > 25 µM (inactive) in the experiment on DAPI (mean of runs), greater than 25 µM with DAPI (run 1) and greater than 25 µM in the experiment on DAPI (run 2). Moreover, in the experiment with TAG (mean of runs), the IC50 was 19.4 µM (inactive). Further, the pIC50 with TAG (run 1) is 4.79; with TAG (run 2), 4.65.
Consider `CCOc1ccc(C2=Nc3ccccc3C(c3ccc(N4CCOCC4)cc3)=NN2)cc1`, for which the IC50 cytotoxicity (DAPI nuclear signal decrease) was > 25 µM (inactive) in the experiment with DAPI (mean of runs), greater than 25 µM in the experiment on DAPI (run 1) and greater than 25 µM in the experiment with DAPI (run 2). Moreover, the pIC50 in the experiment on TAG (run 1) is less than 4.60; in the experiment on TAG (run 2) it was 4.84.
`NC1=NC[C@H](Cc2ccccc2)N1CCc1cc(C(F)(F)F)cc(C(F)(F)F)c1`: the IC50 cytotoxicity (DAPI nuclear signal decrease) was > 25 µM (inactive) in the experiment with DAPI (mean of runs), greater than 25 µM in the experiment on DAPI (run 1) and greater than 25 µM in the experiment with DAPI (run 2). For the same molecule, the IC50 in the experiment with TAG (mean of runs) is > 25 µM (inactive). Also, the pIC50 with TAG (run 1) and in the experiment on TAG (run 2) was less than 4.60 each time.
Turning to `Cc1nn2c(NCc3ccccn3)c3c(nc2c1-c1ccccc1)CCC3`, the IC50 cytotoxicity (DAPI nuclear signal decrease) with DAPI (mean of runs) was > 25 µM (inactive); in the experiment with DAPI (run 1), greater than 25 µM; in the experiment with DAPI (run 2), greater than 25 µM. In addition, the IC50 in the experiment on TAG (mean of runs) was > 25 µM (inactive). Also, the pIC50 in the experiment on TAG (run 1) and in the experiment on TAG (run 2) was less than 4.60 each time.
For `CCOC(=O)c1ccc(NC(=O)c2nc[nH]c2C(=O)NCCCCNC(=O)c2[nH]cnc2C(=O)Nc2ccc(C(=O)OCC)cc2)cc1`, the IC50 cytotoxicity (DAPI nuclear signal decrease) in the experiment with DAPI (run 1) and in the experiment on DAPI (run 2) was greater than 25 µM each time. For the same molecule, the pIC50 with TAG (mean of runs) is 5.41; with TAG (run 1), 5.51; in the experiment with TAG (run 2), 5.33.
